Test results: patent US10335446B2, “Methods of treating diseases using grape proteins” (priority 2015, dated 2019)
Several values for one entry are separate records, joined by “and”; a condition that tells them apart may be missing. Equal values may be shown once. Read-outs that look alike come from different tables or passages of the source. Marks after values point to notes of the source that are not given here.

Columns and labels:
[1] = assay type: in vivo, female BALB/c nude mice
Method: At the time of routine monitoring, the animals were daily checked for any effects of tumor growth and treatments on normal behavior such as mobility, food and water consumption (by looking only), body weight gain/loss (body weights were measured twice weekly), eye/hair matting and any other abnormal effect as stated in the protocol. Death and observed clinical signs were recorded on the basis of the numbers of animals within each subset.
Animal body weight was monitored regularly as an indirect measure of toxicity (FIG. 54A-B). No group lost weight as a result of test article administration, except the prophylactic KHGD Group 4 which was found with sign of emaciation and dehydration due to the 3 days' whole-day supply of KHGD.

[2] = test system: MDA-MB-436 human breast cancer; assay: Subcutaneous MDA-MB-436 human breast cancer xenograft model, tumor volume and weight; assay type: in vivo, female BALB/c nude mice
Method: The in vivo anti-tumor efficacy of KHJ, KH103, and KHGD in the subcutaneous MDA-MB-436 human breast cancer model in female BALB/c nude mice was evaluated.
The animals used were of the species Mus musculus, strain BALB/c nude, age 6-8 weeks, and female. The body weight was 18-22 g. The number of animals was 90 mice, plus spare. The animal supplier was Shanghai BK Laboratory Animal Co., LTD.
The tumor cells were routinely subcultured twice weekly by trypsin-EDTA treatment.
Each mouse was inoculated subcutaneously at the right flank with MDA-MB-436 tumor cells (1×10^7) in 0.1 ml of PBS supplemented with BD Matrigel (1:1) for tumor development. The prophylactic treatments were started 13 days before inoculation. The therapeutic treatments were started on day 9 after tumor inoculation when the average tumor size reached approximately 81 mm^3. Each group consisted of 10 tumor-bearing mice. The testing article was administrated to the mice according to the predetermined regimen as shown in the experimental design Table 21 (prophylactic) and Table 22 (therapeutic).
The major endpoint was to see if the tumor growth could be delayed or mice could be cured. Tumor size was measured twice weekly in two dimensions using a caliper, and the volume was expressed in mm^3 using the formula: V=0.5 a×b^2 where a and b are the long and short diameters of the tumor, respectively. The tumor size was then used for calculations of both T-C and T/C values. T-C was calculated with T as the time (in days) required for the mean volume of treatment group tumors to reach 600 mm^3, and C as the time (in days) for the mean volume of control group tumors to reach the same size. The T/C value (in percent) is an indication of antitumor effectiveness; T and C are the mean volumes of the treated and control groups, respectively, on a given day.
ΔTGI was calculated for each group using the formula: ΔTGI (%)=[1−(Ti−T0)/(Vi−V0)]×100; Ti is the average tumor volume of a treatment group on a given day, T0 is the average tumor volume of the treatment group on the day of treatment start, Vi is the average tumor volume of the vehicle control group on the same day with Ti, and V0 is the average tumor volume of the vehicle group on the day of treatment start.
Tumor pictures were taken and tumor weight was measured at the study termination. T/Cweight value (in percent) was calculated using the formula: T/Cweight%=Tweight/Cweight×100% where Tweight and Cweight were the mean tumor weights of the treated and vehicle control groups, respectively.
Statistical analyses of differences in tumor volume and tumor weight among the groups were conducted on the data obtained when the average tumor volume of vehicle-therapeutic group reached 2,000 mm^3 (Day 71 after inoculation).
One-way ANOVA was performed to compare tumor volume and tumor weight among groups, and when a significant F-statistics (a ratio of treatment variance to the error variance) was obtained, comparisons between groups were carried out with Dunnett t-tests.

[3] = Diet-induced obesity (DIO) mice study: blood glucose, insulin, plasma lipids, body weight, food intake; assay type: in vivo, C57BL/6J male mice; conditions: Atorvastatin 20 mg/kg, test articles tid po 10 mL/kg + ad libitum
Molt-4-luc leukemia = assay type: in vivo
Method: Temperature and relative humidity were monitored daily.
The tumor cells were routinely subcultured twice weekly.
Whole body and metastatic bioluminescence were measured and recorded.
Tumor growth curve was plotted with median relative bioluminescence.

3T3-L1 adipocytes = assay: Glucose uptake assay (2-deoxy-D-[3H]-glucose) in 3T3-L1 adipocytes; assay type: cell-based; conditions: for EC50: read-out: Insulin EC50
[4] = day 111 after the cell injection, positive control, treatment right after cell injection, of 6 mice
[5] = 2014 Aug. 27, insulin dose 0.01 nM
[6] = 2014 Aug. 27, insulin dose 0.03 nM
[7] = 2014 Aug. 27, insulin dose 0.09 nM
[8] = 2014 Aug. 27, insulin dose 0.27 nM
[9] = 2014 Aug. 27, insulin dose 7.41 nM
[10] = 2014 Aug. 27, insulin dose 22.2 nM
[11] = 2014 Aug. 27, insulin dose 66.7 nM
[12] = 2014 Aug. 27, insulin dose 200 nM
[13] = 2014 Aug. 28, insulin dose 0.27 nM
[14] = 2014 Aug. 28, insulin dose 2.47 nM
[15] = 2014 Aug. 28, insulin dose 7.41 nM
[16] = 2014 Aug. 28, insulin dose 22.2 nM
[17] = 2014 Aug. 28, insulin dose 66.7 nM
[18] = 2014 Aug. 28, insulin dose 200 nM
[19] = 2014 Jul. 11, insulin dose 0.82 nM
[20] = 2014 Jul. 11, insulin dose 7.41 nM
[21] = 2014 Jul. 11, insulin dose 22.22 nM
[22] = 2014 Jul. 11, insulin dose 66.67 nM
[23] = 2014 Jul. 11, insulin dose 200 nM
[24] = 2014 Jul. 14, insulin dose 0.09 nM
[25] = 2014 Jul. 14, insulin dose 0.82 nM
[26] = 2014 Jul. 14, insulin dose 2.47 nM
[27] = 2014 Jul. 14, insulin dose 7.41 nM
[28] = 2014 Jul. 14, insulin dose 22.2 nM
[29] = 2014 Jul. 14, insulin dose 66.7 nM
[30] = 2014 Jul. 14, insulin dose 200 nM
[31] = Insulin dose 0.09 nM, duplicates
[32] = Insulin dose 7.41 nM, duplicates
[33] = Insulin dose 22.2 nM, duplicates
[34] = Insulin dose 66.7 nM, duplicates
[35] = Insulin dose 200 nM, duplicates

CC(=O)O[C@H]1C(=O)[C@@]2(C)[C@H]([C@H](OC(=O)c3ccccc3)[C@]3(O)C[C@H](OC(=O)[C@H](O)[C@@H](NC(=O)c4ccccc4)c4ccccc4)C(C)=C1C3(C)C)[C@]1(OC(C)=O)CO[C@@H]1C[C@@H]2O [Paclitaxel]
mortality ([1]; Group 6, days after the start of therapeutic treatment, possibly due to drug toxicity): died on day 20 and day 63
BWL > 20% ([1]; mouse, in vivo): 0
Subtotal mice# lost/N ([1]; therapeutic arm): 2/10
mortality ([1]; therapeutic arm, number of animals, n=10): 2^a (D20, 63)^b
Tumor Size at day 71 ([2]; therapeutic arm, Mean ± SEM at day 71 after inoculation): 637 ± 211 mm^3
Tumor Weight at day 78 ([2]; therapeutic arm, Mean ± SEM at day 78 after inoculation): 0.67 ± 0.23 g
ΔTGI ([2]; therapeutic arm, day 71): 71%
T-C at 600 mm^3 ([2]; therapeutic arm, tumor growth delay at tumor size 600 mm^3): 23 days
T/C ([2]; therapeutic arm, tumor volume at day 71 vs vehicle-therapeutic): 31%
T/Cweight ([2]; therapeutic arm, tumor weight at day 78 vs vehicle-therapeutic): 39.6%
antitumor activity ([2]; therapeutic arms): statistically significant antitumor activity
tumor growth delay at tumor size of 600 mm^3 ([2]; therapeutic arms, compared with the vehicle group): 23 days
T/C value ([2]; therapeutic arms, day 71): 31%
mean tumor size ([2]; therapeutic arms, day 71 after tumor inoculation, vehicle 2,025, Paclitaxel 1.5 mg/kg, BIW×9 weeks): 637 mm^3

CC(C)c1c(C(=O)Nc2ccccc2)c(-c2ccccc2)c(-c2ccc(F)cc2)n1CC[C@@H](O)C[C@@H](O)CC(=O)O [Atorvastatin]
body weight of the DIO mice [3]: significantly decrease
blood glucose level ([3]; DIO mice, 0-8 weeks): significantly decrease
insulin sensibility ([3]; DIO mice, 0-8 weeks): significantly increase

O=P1(N(CCCl)CCCl)NCCCO1 (stereo not shown) [Cyclophosphamide]
survival until day 150 (Molt-4-luc leukemia; all mice of the group): died
median relative bioluminescence (Molt-4-luc leukemia; day 50 after cell implantation, treatment given right after cell injection (therapeutic / positive control group), vehicle 153.43): 1.40
Animals # with bioluminescence signal (Molt-4-luc leukemia; [4]): 1
Survival animals # (Molt-4-luc leukemia; [4]): 5
survival of mice (Molt-4-luc leukemia; day 111 after the cell injection, six mice per group, vehicle: two mice died): one mouse died
day at which one mouse died (Molt-4-luc leukemia; mouse, in vivo): 57 days

Insulin
% Activity (3T3-L1 adipocytes; [5]): 5% and 6%
Count (3T3-L1 adipocytes; [5]): 2169 and 2178
% Activity (3T3-L1 adipocytes; [6]): −8% and −12%
Count (3T3-L1 adipocytes; [6]): 2065 and 2030
% Activity (3T3-L1 adipocytes; [7]): 6% and 4%
Count (3T3-L1 adipocytes; [7]): 2177 and 2166
% Activity (3T3-L1 adipocytes; [8]): 2% and −7%
Count (3T3-L1 adipocytes; [8]): 2145 and 2075
Count (3T3-L1 adipocytes; 2014 Aug. 27, insulin dose 0.82 nM): 2390 and 2146
Count (3T3-L1 adipocytes; 2014 Aug. 27, insulin dose 2.47 nM): 2131 and 2284
% Activity (3T3-L1 adipocytes; [9]): 54% and 42%
Count (3T3-L1 adipocytes; [9]): 2579 and 2483
% Activity (3T3-L1 adipocytes; [10]): 53% and 61%
Count (3T3-L1 adipocytes; [10]): 2573 and 2636
% Activity (3T3-L1 adipocytes; [11]): 90% and 93%
Count (3T3-L1 adipocytes; [11]): 2877 and 2903
% Activity (3T3-L1 adipocytes; [12]): 52% and 59%
Count (3T3-L1 adipocytes; [12]): 2565 and 2617
Count (3T3-L1 adipocytes; 2014 Aug. 28, insulin dose 0.01 nM): 1918 and 2052
Count (3T3-L1 adipocytes; 2014 Aug. 28, insulin dose 0.03 nM): 2281 and 2003
Count (3T3-L1 adipocytes; 2014 Aug. 28, insulin dose 0.09 nM): 2130 and 2378
% Activity (3T3-L1 adipocytes; [13]): 19% and 24%
Count (3T3-L1 adipocytes; [13]): 2258 and 2306
Count (3T3-L1 adipocytes; 2014 Aug. 28, insulin dose 0.82 nM): 2111 and 2261
% Activity (3T3-L1 adipocytes; [14]): 13% and 22%
Count (3T3-L1 adipocytes; [14]): 2208 and 2286
% Activity (3T3-L1 adipocytes; [15]): 39% and 41%
Count (3T3-L1 adipocytes; [15]): 2427 and 2442
% Activity (3T3-L1 adipocytes; [16]): 84% and 48%
Count (3T3-L1 adipocytes; [16]): 2812 and 2503
% Activity (3T3-L1 adipocytes; [17]): 75% and 85%
Count (3T3-L1 adipocytes; [17]): 2736 and 2827
% Activity (3T3-L1 adipocytes; [18]): 85% and 56%
Count (3T3-L1 adipocytes; [18]): 2813 and 2574
Count (3T3-L1 adipocytes; 2014 Jul. 11, insulin dose 0.09 nM): 760 and 587
Count (3T3-L1 adipocytes; 2014 Jul. 11, insulin dose 0.27 nM): 709 and 761
% Activity (3T3-L1 adipocytes; [19]): 28% and 17%
Count (3T3-L1 adipocytes; [19]): 800 and 746
Count (3T3-L1 adipocytes; 2014 Jul. 11, insulin dose 2.47 nM): 736 and 828
% Activity (3T3-L1 adipocytes; [20]): 47% and 70%
Count (3T3-L1 adipocytes; [20]): 884 and 992
% Activity (3T3-L1 adipocytes; [21]): 47% and 72%
Count (3T3-L1 adipocytes; [21]): 887 and 1000
% Activity (3T3-L1 adipocytes; [22]): 68% and 72%
Count (3T3-L1 adipocytes; [22]): 979 and 1000
% Activity (3T3-L1 adipocytes; [23]): 68% and 70%
Count (3T3-L1 adipocytes; [23]): 980 and 989
% Activity (3T3-L1 adipocytes; [24]): 3% and 11%
Count (3T3-L1 adipocytes; [24]): 1033 and 1075
Count (3T3-L1 adipocytes; 2014 Jul. 14, insulin dose 0.27 nM): 1118 and 1018
% Activity (3T3-L1 adipocytes; [25]): 12%
Count (3T3-L1 adipocytes; [25]): 1082 and 1083
% Activity (3T3-L1 adipocytes; [26]): 55% and 32%
Count (3T3-L1 adipocytes; [26]): 1317 and 1191
% Activity (3T3-L1 adipocytes; [27]): 59% and 41%
Count (3T3-L1 adipocytes; [27]): 1335 and 1238
% Activity (3T3-L1 adipocytes; [28]): 61% and 63%
Count (3T3-L1 adipocytes; [28]): 1347 and 1362
% Activity (3T3-L1 adipocytes; [29]): 64% and 42%
Count (3T3-L1 adipocytes; [29]): 1364 and 1243
% Activity (3T3-L1 adipocytes; [30]): 97% and 106%
Count (3T3-L1 adipocytes; [30]): 1545 and 1591
Count (3T3-L1 adipocytes; Insulin dose 0.03 nM, duplicates): 2039 and 1067
% Activity (3T3-L1 adipocytes; [31]): −3% and −4%
Count (3T3-L1 adipocytes; [31]): 2101 and 2091
Count (3T3-L1 adipocytes; Insulin dose 0.27 nM, duplicates): 2196 and 2340
Count (3T3-L1 adipocytes; Insulin dose 0.82 nM, duplicates): 2069 and 2263
% Activity (3T3-L1 adipocytes; [32]): 31% and 39%
Count (3T3-L1 adipocytes; [32]): 2395 and 2466
% Activity (3T3-L1 adipocytes; [33]): 58% and 63%
Count (3T3-L1 adipocytes; [33]): 2633 and 2673
% Activity (3T3-L1 adipocytes; [34]): 70% and 61%
Count (3T3-L1 adipocytes; [34]): 2736 and 2660
% Activity (3T3-L1 adipocytes; [35]): 80% and 62%
Count (3T3-L1 adipocytes; [35]): 2820 and 2663
EC50 (3T3-L1 adipocytes; run of 2014 Aug. 27): 2.54 nM
EC50 (3T3-L1 adipocytes; run of 2014 Aug. 28): 6.94 nM
EC50 (3T3-L1 adipocytes; run of 2014 Aug. 29): 6.66 nM
EC50 (3T3-L1 adipocytes; run of 2014 Jul. 11): 3.96 nM
EC50 (3T3-L1 adipocytes; run of 2014 Jul. 14): 2.46 nM
